One series deals with primary neurons. The experiment in a line: Neuronal cell death in the presence of NMDA. The conditions noted are these: 1 or 10 μM compound, 100 μM NMDA. Format: cell-based, mouse. On the procedure: Primary neurons were treated with 0.4, 1, 2, 10 or 50 μM of compound 2 or compound 22 (prepared according to Example 2). NSP5 was added to primary neurons at DIV11, and compound 2 or 22 was added 48 hours later. Cells were treated with propidium iodide 48 hours after compound addition. Cells were washed with PBS and fixed with 4% PFA. Cells were then washed and stained with DAPI. Images of cells were taken with ZEISS Axioscan 7 microscope slide scanner. Cell death was determined by Image J analysis, counting the death cell (red, PI)) vs all cells (blue, DAPI).
One hour after compound addition (1 or 10 μM of compound 2 or compound 22) neurons were treated with a cytotoxic agent (100 μM N-methyl-D-aspartate (NMDA), 100 μM H2O2 or 5 μM staurosporine). One hour after treatment with the cytotoxic agent, the media was replaced with fresh media and the neurons were incubated for 24 hours. A final concentration of 1 μM propidium iodide (PI) was added into the well and incubated for 5 mins. Cells were washed with phosphate-buffered saline (PBS) and then fixed with 4% PFA. Cells were then washed and stained with DAPI, and cell death determined as described above.

Series [1] can be described thus: Mouse pharmacokinetics, IV administration. Format: in vivo. As to the method: Pharmacokinetic parameters of compound 22 (prepared in accordance with Example 2) were determined following intravenous (IV, 3 mg/kg) and intraperitoneal (IP, 10 mg/kg) administration to male C57BL/6 mice.
IV and IP formulations were prepared separately by dissolving solid compound 22 in dimethyl sulfoxide (DMSO) prior to addition of 50 mM phosphate buffered saline (pH 6.5) using vortexing and sonication to produce a colourless solution, and giving a final DMSO concentration of 5% (v/v) for each formulation. The IV formulation was filtered through a 0.22 μm syringe filter prior to dosing, whereas the IP formulation was not filtered.
The pharmacokinetics of compound 22 was studied in non-fasted male C57BL/6 mice weighing 21.1-26.5 g. Mice had access to food and water ad libitum throughout the pre- and post-dose sampling period.
Compound 22 was dosed to mice by bolus injection into the lateral tail vein (2 mL/kg) for IV administration and by injection into the IP cavity (5 mL/kg) for IP administration. After dosing, blood samples were collected up to 24 h (n=3 mice per time point) with a maximum of three samples from each mouse via submandibular bleed (approximately 120 μL). No urine samples were collected as mice were housed in bedded cages. Blood was collected into polypropylene Eppendorf tubes containing heparin as anticoagulant. Once collected, blood samples were centrifuged immediately, supernatant plasma was removed, and stored at −80 °C until analysis by liquid chromatography-mass spectrometry (LC-MS). A summary of the bioanalytical method is included in Table 5.
Concentrations of test compound in plasma and tissue samples were determined using a liquid chromatography with tandem mass spectrometry (LCMS/MS) method validated for linearity, accuracy, precision, matrix factor and recovery (refer to Table 5).
Plasma: The plasma calibration curve was prepared by spiking aliquots of blank mouse plasma (25 μL) with test compound standard solutions (5 μL) and internal standard solution (5 μL of diazepam, 5 μg/mL in 50% acetonitrile in water). Test plasma samples (25 μL) were thawed, mixed and then spiked with internal standard solution (5 μL). Plasma protein precipitation was performed by addition of acetonitrile (3-fold volume ratio) and thorough vortex mixing. Samples were centrifuged (RCF=9391×g) for 3 minutes and the supernatant (100 μL) was collected for analysis. The analysis of blood/plasma (B/P) partitioning samples was conducted similarly as for the plasma samples, using protein precipitation with acetonitrile as described above.
The plasma concentration versus time profile was defined by the average plasma concentration at each sample time, and PK parameters were calculated using non-compartmental methods (PKSolver Version 2.0). Standard calculations for each pharmacokinetic parameter are listed below.

Series [2] in a line: Stability in brain and lung homogenates. The conditions noted are these: sample processing (15 min), EDTA/potassium fluoride. The class given is in vitro ADME, mouse. On the procedure: Tissue: Pre-weighed tissue samples (brain and lung) were homogenised using a gentleMACS™ Octo Dissociator (Miltenyi Biotec, Macquarie Park, Australia) in buffer containing an EDTA/potassium fluoride solution (0.1 M/4 mg/mL) as a stabilisation cocktail to minimise the potential for ex vivo degradation (3 mL cocktail/g tissue). The tissue homogenate was briefly centrifuged (RCF=79×g) for 10 seconds to separate the foam layer before transferring an aliquot of the tissue homogenate (200 μL) to a fresh Eppendorf tube for sample extraction. Calibration standards were prepared by spiking blank brain and lung homogenate (200 μL) with the solution standards (10 μL) and the internal standard (10 μL). Study samples (for all tissue types) were similarly prepared, except that acetonitrile (10 μL) was added instead of solution standards to maintain the same volume. Protein precipitation was carried out by the addition of a 3-fold volume of acetonitrile, followed by vortex mixing and centrifugation (RCF=9391×g) for 3 min to recover the supernatant for analysis.

Series [3] has as its system PHP.B hSyn-NSP5-V5 adeno-associated virus. The experiment in a line: Hanging wire test. Format: in vivo, mouse. The conditions noted are these: 10 mg/kg daily, vs Paxlovid and vehicle. As to the method:
In vivo testing was performed on 5-month-old female C57BL/6 wildtype mice injected intravenously with PHP.B hSyn-NSP5-V5 adeno-associated virus (AAV) and treated daily with compound 22 (10 mg/kg), Paxlovid (nirmatrelvir/ritonavir) (10 mg/kg nirmatrelvir: 3.33 mg/kg ritonavir) or a vehicle control (n=10 per group).
Motor testing was performed on the Rota-rod five times daily over a three-day testing period as previously described (refer to Ke et al. (2015) Acta Neuropathol, 130: 661-678). Motor coordination was also assessed using the hanging wire test at 14 and 22 days post injection with the AAV, which assessed the time hanging upside down on a wire grid (refer to Chan et al. (2020) Am J Path, 190(8): 1713-1722). Anxiety, disinhibition and exploratory behaviour was assessed using the elevated plus maze (EPM) test as previously described (refer to Ke et al. (2015) Acta Neuropathol, 130: 661-678).

Like-named read-outs stand apart in the source and are kept apart here.

As to `NC(=O)C1CCN(c2ncccc2CNCc2cccc3[nH]ccc23)CC1` [Compound 22], the “Protection from NMDA-induced neurotoxicity” value in the series with primary neurons is given as “did not protect”. Besides, the “Apparent blood volume of distribution” value in series [1] (IV 3 mg/kg) was “high”. In series [1] (IV 3 mg/kg), the Blood clearance result is “moderate”. For the same compound, the “Duration of measurable plasma concentrations” value in series [1] (IV 3 mg/kg) was found to be 24 h. Also, the “In vivo blood clearance relative to nominal hepatic blood flow” value in series [1] (IV 3 mg/kg, mouse) was ~ 50%. The “In vivo hepatic extraction ratio” value in series [1] (IV 3 mg/kg, assuming predominantly hepatic clearance) was “moderate”. In addition, the clearance in series [1] (mouse, blood, IV 3 mg/kg, extrapolation to infinity, approximation only, read-out: Blood CL) was 60.6 mL/min/kg; in series [1] (mouse, plasma, IV 3 mg/kg, extrapolation to infinity, approximation only, read-out: Plasma CL), 84.9 mL/min/kg. The Vd in series [1] (mouse, blood, IV 3 mg/kg, extrapolation to infinity, approximation only, read-out: Blood VSS) is 16.6 L/kg; in series [1] (mouse, plasma, IV 3 mg/kg, extrapolation to infinity, approximation only, read-out: Plasma VSS), 23.3 L/kg. Moreover, the half-life in series [1] (mouse, plasma, iv, 3 mg/kg, male C57BL/6 mice, terminal phase not clearly defined, approximation only, read-out: Apparent t1/2 (converted)) was around 14 h. In series [1] (mouse, plasma, IV 3 mg/kg, male C57BL/6 mice, read-out: Plasma AUC0-last), the AUC(0-t) is 1.51 µM·h. Moreover, the AUC(0-inf) in series [1] (mouse, plasma, IV 3 mg/kg, extrapolation to infinity, approximation only, read-out: Plasma AUC0-inf) is 1.62 µM·h. Besides, the “Stability in brain and lung homogenates” value in series [2] is listed as “stable”. Further, the “Hanging wire test, mice reaching maximum time” value in series [3] (14 days post AAV) and in series [3] (22 days post AAV) was “more compound 22-treated mice reaching the maximum time” in each case.

(Values after patent publication US20260355171A1, “INHIBITORS AND USES THEREFOR” (priority 2022, published 2026).)
